Source: ChEMBL document CHEMBL3580659, “One-pot multicomponent synthesis of indole incorporated thiazolylcoumarins and their antibacterial, anticancer and DNA cleavage studies” (2015)

Tests used:
Type in all cases: functional
[1] = tested on: U-251; test: Cytotoxicity against human U251 cells assessed as cell growth level at 1 uM after 48 hrs by sulforhodamine B assay
[2] = tested on: SF-539; test: Cytotoxicity against human SF539 cells after 48 hrs by sulforhodamine B assay; settings: SF-539, 48 h
[3] = tested on: MDA-MB-435; test: Cytotoxicity against human MDA-MB-435 cells assessed as cell growth level at 10 uM after 48 hrs by sulforhodamine B assay
[4] = tested on: OVCAR-8; test: Cytotoxicity against human OVCAR8 cells assessed as cell growth level at 10 nM after 48 hrs by sulforhodamine B assay
[5] = tested on: SF-268; test: Cytotoxicity against human SF268 cells after 48 hrs by sulforhodamine B assay; settings: SF-268, 48 h
[6] = tested on: SNB-75; test: Cytotoxicity against human SNB75 cells assessed as cell growth level at 10 uM after 48 hrs by sulforhodamine B assay
[7] = tested on: A549; test: Cytotoxicity against human A549/ATCC cells assessed as cell growth level at 1 uM after 48 hrs by sulforhodamine B assay
[8] = tested on: NCI-H460; test: Cytotoxicity against human NCI-H460 cells assessed as cell growth level at 10 uM after 48 hrs by sulforhodamine B assay
[9] = tested on: RXF 393; test: Cytotoxicity against human RXF393 cells assessed as cell growth level at 10 nM after 48 hrs by sulforhodamine B assay
[10] = tested on: HL-60(TB); test: Cytotoxicity against human HL-60(TB) cells assessed as cell growth level at 100 nM after 48 hrs by sulforhodamine B assay
[11] = tested on: SK-MEL-2; test: Cytotoxicity against human SK-MEL-2 cells assessed as cell growth level at 100 nM after 48 hrs by sulforhodamine B assay
[12] = tested on: NCI-H522; test: Cytotoxicity against human NCI-H522 cells assessed as cell growth level at 10 nM after 48 hrs by sulforhodamine B assay
[13] = tested on: SNB-75; test: Cytotoxicity against human SNB75 cells assessed as cell growth level at 100 uM after 48 hrs by sulforhodamine B assay
[14] = tested on: SNB-75; test: Cytotoxicity against human SNB75 cells assessed as cell growth level at 10 nM after 48 hrs by sulforhodamine B assay
[15] = Cytotoxicity against human NCI-ADR-RES cells assessed as cell growth level at 10 uM after 48 hrs by sulforhodamine B assay
[16] = tested on: SR; test: Cytotoxicity against human SR cells assessed as cell growth level at 100 uM after 48 hrs by sulforhodamine B assay
[17] = tested on: 786-0; test: Cytotoxicity against human 786-0 cells assessed as cell growth level at 100 nM after 48 hrs by sulforhodamine B assay
[18] = tested on: UO-31; test: Cytotoxicity against human UO31 cells assessed as cell growth level at 100 nM after 48 hrs by sulforhodamine B assay
[19] = tested on: SK-MEL-2; test: Cytotoxicity against human SK-MEL-2 cells after 48 hrs by sulforhodamine B assay; settings: SK-MEL-2, 48 h
[20] = tested on: A498; test: Cytotoxicity against human A498 cells assessed as cell growth level at 100 uM after 48 hrs by sulforhodamine B assay
[21] = tested on: KM12; test: Cytotoxicity against human KM12 cells assessed as cell growth level at 10 uM after 48 hrs by sulforhodamine B assay
[22] = tested on: SW-620; test: Cytotoxicity against human SW620 cells assessed as cell growth level at 1 uM after 48 hrs by sulforhodamine B assay
[23] = tested on: OVCAR-4; test: Cytotoxicity against human OVCAR4 cells after 48 hrs by sulforhodamine B assay; settings: OVCAR-4, 48 h
[24] = tested on: SF-295; test: Cytotoxicity against human SF295 cells after 48 hrs by sulforhodamine B assay; settings: SF-295, 48 h
[25] = tested on: UACC-257; test: Cytotoxicity against human UACC257 cells assessed as cell growth level at 100 uM after 48 hrs by sulforhodamine B assay
[26] = tested on: MDA-MB-435; test: Cytotoxicity against human MDA-MB-435 cells assessed as cell growth level at 1 uM after 48 hrs by sulforhodamine B assay
[27] = tested on: OVCAR-3; test: Cytotoxicity against human OVCAR3 cells assessed as cell growth level at 100 nM after 48 hrs by sulforhodamine B assay
[28] = tested on: OVCAR-4; test: Cytotoxicity against human OVCAR4 cells assessed as cell growth level at 1 uM after 48 hrs by sulforhodamine B assay
[29] = tested on: HCT-15; test: Cytotoxicity against human HCT15 cells assessed as cell growth level at 100 nM after 48 hrs by sulforhodamine B assay
[30] = tested on: HL-60(TB); test: Cytotoxicity against human HL-60(TB) cells assessed as cell growth level at 10 nM after 48 hrs by sulforhodamine B assay
[31] = tested on: RXF 393; test: Cytotoxicity against human RXF393 cells assessed as cell growth level at 100 nM after 48 hrs by sulforhodamine B assay
[32] = tested on: SK-MEL-2; test: Cytotoxicity against human SK-MEL-2 cells assessed as cell growth level at 10 uM after 48 hrs by sulforhodamine B assay
[33] = tested on: OVCAR-8; test: Cytotoxicity against human OVCAR8 cells assessed as cell growth level at 100 uM after 48 hrs by sulforhodamine B assay
[34] = tested on: 786-0; test: Cytotoxicity against human 786-0 cells assessed as cell growth level at 10 uM after 48 hrs by sulforhodamine B assay
[35] = tested on: NCI-H226; test: Cytotoxicity against human NCI-H226 cells assessed as cell growth level at 100 uM after 48 hrs by sulforhodamine B assay
[36] = tested on: OVCAR-3; test: Cytotoxicity against human OVCAR3 cells assessed as cell growth level at 1 uM after 48 hrs by sulforhodamine B assay
[37] = tested on: M14; test: Cytotoxicity against human M14 cells assessed as cell growth level at 10 uM after 48 hrs by sulforhodamine B assay
[38] = tested on: OVCAR-8; test: Cytotoxicity against human OVCAR8 cells after 48 hrs by sulforhodamine B assay; settings: OVCAR-8, 48 h
[39] = tested on: A498; test: Cytotoxicity against human A498 cells assessed as cell growth level at 1 uM after 48 hrs by sulforhodamine B assay
[40] = read-out: LC50 (the source's name)
[41] = read-out: pLC50 (the source's name) (converted)

Work on `O=c1oc2ccccc2cc1-c1csc(N/N=C/c2c[nH]c3ccccc23)n1` yielded an Activity [1] of 103%, a GI50 ([2]; read-out: GI50) of 1.58 µM and a CC50 [2, 40] of 7.25 µM. The TGI ([2]; read-out: TGI) was 3.38 µM, the GI50 ([2]; read-out: pGI50 (converted)) was 1.58 µM and the CC50 [2, 41] was 7.24 µM. The TGI ([2]; read-out: pTGI (converted)) was 3.39 µM, the Activity [3] was 22.44% and the Activity [4] was 104%. For the same molecule, the GI50 ([5]; read-out: GI50) was 1.93 µM, the CC50 [5, 40] was > 100 µM and the TGI ([5]; read-out: TGI) was 8.77 µM. For the same molecule, the GI50 ([5]; read-out: pGI50 (converted)) was 1.95 µM, the CC50 [5, 41] was > 100 µM and the TGI ([5]; read-out: pTGI (converted)) was 8.71 µM. It also gave an Activity [6] of 15.44%, an Activity [7] of 68% and an Activity [8] of 5.79%. It also gave an Activity [9] of 98%, an Activity [10] of 97% and an Activity [11] of 95%. For the same molecule, the Activity [12] was 105%, the Activity [13] was -53% and the Activity [14] was 94%. For the same molecule, the Activity [15] was 24.9%, the Activity [16] was -46% and the Activity [17] was 82%. The Activity [18] was 91%, the GI50 ([19]; read-out: GI50) was 1.61 µM and the CC50 [19, 40] was 8.17 µM. It also gave a TGI ([19]; read-out: TGI) of 3.62 µM, a GI50 ([19]; read-out: pGI50 (converted)) of 1.62 µM and a CC50 [19, 41] of 8.13 µM. For the same molecule, the TGI ([19]; read-out: pTGI (converted)) was 3.63 µM, the Activity [20] was -53% and the Activity [21] was -47.67%. The Activity [22] was 72%, the GI50 ([23]; read-out: GI50) was 1.37 µM and the CC50 [23, 40] was > 100 µM. The TGI ([23]; read-out: TGI) was 5.87 µM, the GI50 ([23]; read-out: pGI50 (converted)) was 1.38 µM and the CC50 [23, 41] was > 100 µM. The TGI ([23]; read-out: pTGI (converted)) was 5.89 µM, the GI50 ([24]; read-out: GI50) was 2.23 µM and the CC50 [24, 40] was > 100 µM. The TGI ([24]; read-out: TGI) was 6.76 µM, the GI50 ([24]; read-out: pGI50 (converted)) was 2.24 µM and the CC50 [24, 41] was > 100 µM. For the same molecule, the TGI ([24]; read-out: pTGI (converted)) was 6.76 µM, the Activity [25] was -89% and the Activity [26] was 79%. It also gave an Activity [27] of 90%, an Activity [28] of 85% and an Activity [29] of 96%. The Activity [30] was 92%, the Activity [31] was 93% and the Activity [32] was -9.49%. The Activity [33] was -8%, the Activity [34] was -53.65% and the Activity [35] was -31%. For the same molecule, the Activity [36] was 61%, the Activity [37] was 34.19% and the GI50 ([38]; read-out: GI50) was 1.9 µM. The CC50 [38, 40] was > 100 µM, the TGI ([38]; read-out: TGI) was 4.56 µM and the GI50 ([38]; read-out: pGI50 (converted)) was 1.91 µM. For the same molecule, the CC50 [38, 41] was > 100 µM, the TGI ([38]; read-out: pTGI (converted)) was 4.57 µM and the Activity [39] was 61%.
